Starred links: 1 amine or outer side, 2 acyl side, 3 side chain; linkers in the order of their positions; H or OH if unused. Positions of bridges follow the written chain, without caps; N, C: chain ends. Non-standard residues stand in square brackets, D forms with d. Residues, ends and D or L forms follow the SMILES beside them. Trimesoyl = O=C(c1cc(C(=O)[*:2])cc(C(=O)[*:3])c1)[*:1]; d2Nal = N[C@H](Cc1ccc2ccccc2c1)C(=O)O; Dap = NC[C@H](N)C(=O)O
Key:
Etf-1 = Etf-1 (Ehrlichia chaffeensis, UniProt Q2GG12); assay: FP assay of Etf-1 binding with FAM-labeled peptides
THP-1 cells = assay: CellTiter-Glo luminescent cell viability assay; settings: 2-day treatment
E. chaffeensis = E. chaffeensis infection of THP-1 cells, qPCR of 16S rRNA gene normalized to human actin; assay type: cell-based, Ehrlichia chaffeensis

Etf-1, sequence (Q2GG12 entry or part of it): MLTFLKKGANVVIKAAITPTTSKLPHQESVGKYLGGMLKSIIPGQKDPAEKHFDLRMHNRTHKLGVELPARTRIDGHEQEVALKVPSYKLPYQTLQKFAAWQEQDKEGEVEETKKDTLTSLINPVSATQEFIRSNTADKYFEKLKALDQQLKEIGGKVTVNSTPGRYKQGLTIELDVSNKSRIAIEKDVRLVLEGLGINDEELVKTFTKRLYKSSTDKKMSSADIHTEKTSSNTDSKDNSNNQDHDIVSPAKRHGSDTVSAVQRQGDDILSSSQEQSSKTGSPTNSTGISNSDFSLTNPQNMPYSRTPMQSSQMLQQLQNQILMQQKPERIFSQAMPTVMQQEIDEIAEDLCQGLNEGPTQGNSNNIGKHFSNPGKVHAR

## CC(C)C[C@H]1NC(=O)[C@H](CO)NC(=O)[C@H]2CCCN2C(=O)[C@H](CCC(N)=O)NC(=O)[C@H](Cc2c[nH]cn2)NC(=O)[C@H](Cc2ccc(O)cc2)NC(=O)c2cc3cc(c2)C(=O)NC[C@H](NC1=O)C(=O)N[C@@H](Cc1ccccc1)C(=O)N[C@H](Cc1ccc2ccccc2c1)C(=O)N[C@H](CCCNC(=N)N)C(=O)N[C@@H](CCCNC(=N)N)C(=O)N[C@H](CCCNC(=N)N)C(=O)N[C@@H](CCCNC(=N)N)C(=O)N[C@H](C(N)=O)CNC3=O [Peptide B7, TMA-Tyr-His-Gln-pro-Ser-leu-Dap-Phe-nal-arg-Arg-arg-Arg-Dap] (YHQ[dP]S[dL][Dap]F[d2Nal][dR]R[dR]R[Dap]-NH2; linker N-7-14 via Trimesoyl)
Etf-1
  Kd: 6.5 ± 0.7 µM
THP-1 cells; 20 μM
  cell viability: slightly reduced the cell viability
THP-1 cells; up to 10 μM
  cytotoxicity: no cytotoxicity
E. chaffeensis; 10 μM, 2 days, vs DMSO control
  inhibition of E. chaffeensis infection: significantly inhibited
E. chaffeensis; 1, 5, and 10 μM
  dose dependence of inhibition of E. chaffeensis infection: dose-dependent manner
